Results on 18 compounds are retold here after US8436027B2, “Azole compounds used as tuberculostatic and leishmanicide agents” (priority 2005, dated 2013).

“And” between values parts separate entries of the source, which are not always exact repeats. Equal values may be shown once.

In assay [1] the test system is Mycobacterium tuberculosis H37Rv (ATCC-27294). The assay is described as follows: MIC by MABA (Microplate Alamar Blue Assay), antimicrobial activity. Type of assay: cell-based. The conditions noted are these: M. tuberculosis H37Rv (ATCC 27294); for MIC: MABA, 5 days incubation + 24 h Alamar Blue; for Inhibition (%): concentration not given.
The subject of another assay is M. tuberculosis. The note with it: background statement; cited from earlier work.
Assay [2] has as its system promastigote forms of Leishmania amazonensis. The assay is described as follows: Leishmanicide evaluation in vitro, live parasites counted by fluorescence. In kind it is cell-based. The note with it: for Percentage of parasitic inhibition: L. amazonensis promastigotes; for leishmanicide activity (inhibition): Table 6. How it is done: The evaluation of the Leishmanicide activity of the type I and II 1,2,3-triazole derivatives was made through in vitro essays against promastigote forms of Leishmania amazonensis, and after the incubation with compounds, live parasites are counted by fluorescence, thus obtaining as a result, the percentage of inhibition of the compounds evaluated.
Essays were performed in triplicate using pentamidine as a positive pattern with a 160 μg/mL concentration.
The evaluation of the leishmanicide activity of type I (Formula XII) and II (Formula XIII) imidazole derivatives was performed through in vitro essays against promastigote forms of Leishmania amazonensis, and after the incubation with compounds, live parasites are counted by fluorescence, thus obtaining as a result the inhibition percentage of the evaluated compounds.
Essays were performed in triplicate using pentamidine as a positive pattern with a 160 μg/mL concentration, determining which compounds evaluated inhibited the parasite in lower concentrations and the percentage higher than the pattern. Table 6 lists the results obtained in the leishmanicide evaluation of derivatives 140a 148a 146a, 149a.

Consider `COc1ccc(-n2cc(C=O)nn2)cc1` [114d, 4-carboxaldehyde-1-(4-methoxyphenyl)-1H-1,2,3-triazole], for which, in assay [1], the MIC turned out to be 10.0 mg/L and the “Inhibition (%)” value was found to be 100%.
In the case of `O=[N+]([O-])c1ccc(-n2cc(C(F)F)nn2)cc1` [121j, 1-(4-nitrophenyl)-4-difluoromethyl-1H-1,2,3-triazole], the MIC in assay [1] worked out at 40.0 mg/L.
Same read-out and setting: to `FC(F)c1cn(-c2ccc(Cl)cc2)nn1` [121a, 1-(4-chlorophenyl)-4-difluoromethyl-1H-1,2,3-triazole] belongs 40.0 mg/L.
Same read-out and setting: to `COc1ccc(-n2cc(C=O)nn2)cc1OC` [114m, 4-carboxaldehyde 1-(3,4-dimethoxyphenyl)-1H-1,2,3-triazole] belongs 80.0 mg/L; to `O=Cc1cn(-c2ccc([N+](=O)[O-])cc2)nn1` [114j, 4-carboxaldehyde-1-(4-nitrophenyl)-1H-1,2,3-triazole], 20.0 mg/L.
`COc1ccc(OC)c(-n2cc(C=O)nn2)c1` [114e, 4-carboxaldehyde-1-(2,5-dimethoxyphenyl)-1H-1,2,3-triazole]: in assay [1], the MIC worked out at 80.0 mg/L and the “Inhibition (%)” value is recorded as 59%.
On to `NNC(=O)c1ccncc1` [INH, isoniazide], for which the “minimum inhibitory concentration (MIC)” value in the assay on M. tuberculosis was 0.02 to 0.06 mg/L.
On to `N#Cc1cccc(-n2cc(C=O)nn2)c1` [114h, 4-carboxaldehyde-1-(3-cyanophenyl)-1H-1,2,3-triazole], for which the MIC in assay [1] is 20.0 mg/L.
Still for that read-out and setting: to `Brc1ccc(/N=C/c2cn(-c3ccc(Br)cc3)nn2)cc1` [compound 120, (E)-4-bromo-N-((1-(4-bromophenyl)-1H-1,2,3-triazole-4-il)methylene)benzenamine] belongs 20 mg/L.
The same measure, in the same setting: to `Clc1ccc(/N=C/c2cn(-c3ccc(Cl)cc3)nn2)cc1` [compound 119, (E)-4-chloride-N-((1-(4-chlorophenyl)-1H-1,2,3-triazole-4-il)methylene)benzenamine] belongs 40 mg/L.
Take `Cc1ccc(-n2cc(C=O)nn2)cc1` [114c, 4-carboxaldehyde-1-(4-methylphenyl)-1H-1,2,3-triazole]: in assay [1], the MIC came to 2.5 mg/L and the “Inhibition (%)” value came to 100%.
For the compound `O=Cc1cn(-c2cccc(Cl)c2)nn1` [114f, 4-carboxaldehyde-1-(3-chlorophenyl)-1H-1,2,3-triazole], in assay [2] (Concentration 20 μg/mL), the “Percentage of parasitic inhibition” value was “No inhibition”.
For the compound `O=Cc1cn(-c2ccc(Cl)cc2)nn1` [114a, 4-carboxaldehyde-1-(4-chlorophenyl)-1H-1,2,3-triazole], the MIC in assay [1] was 5 mg/L and 5.0 mg/L.
On to `N=C(N)c1ccc(OCCCCCOc2ccc(C(=N)N)cc2)cc1` [pentamidine], for which the “leishmanicide activity (inhibition)” value in assay [2] (Conc. 5 μ/mL), in assay [2] (Conc. 10 μ/mL), in assay [2] (Conc. 20 μ/mL) and in assay [2] (Conc. 80 μ/mL) was “No inhibition” in each case. The “Percentage of parasitic inhibition” value in assay [2] (Concentration 5 μg/mL), in assay [2] (Concentration 10 μg/mL), in assay [2] (Concentration 20 μg/mL) and in assay [2] (Concentration 80 μg/mL) was “No inhibition” throughout.
Regarding `O=Cc1cn(-c2ccc(Br)cc2)nn1` [114b, 4-carboxaldehyde-1-(4-bromophenyl)-1H-1,2,3-triazole], in assay [1], the MIC was 5.0 mg/L and the “Inhibition (%)” value was 100%.
In the case of `O=Cc1cn(-c2cc(Cl)cc(Cl)c2)nn1` [114g, 4-carboxaldehyde-1-(3,5-dichlorophenyl)-1H-1,2,3-triazole], the MIC in assay [1] amounted to 2.5 mg/L.
Same read-out and setting: to `N#Cc1ccc(-n2cc(C=O)nn2)cc1` [114i, 4-carboxaldehyde-1-(4-cyanophenyl)-1H-1,2,3-triazole] belongs 5.0 mg/L.
Turning to `COc1ccccc1-n1cc(C=O)nn1` [114l, 4-carboxaldehyde-1-(2-methoxyphenyl)-1H-1,2,3-triazole], in assay [1], the MIC worked out at 40.0 mg/L and the “Inhibition (%)” value was 94%.

What is called MIC is the lowest concentration that inhibits growth of the organism.
